Assay results from patent US20230278972A1, “SUBSTITUTED HALOALKYL SULFONANILIDE HERBICIDES” (FMC Corporation, priority 2020, published 2023).

How the values were obtained:
Assay type in all cases: in vivo
soybean (Glycine max) = test: Test A1 postemergence, soybean; conditions: Postemergence
In short: (§1)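 Pre: seeds in loam/sand blend, directed soil spray. Post: potted plants, same soil, 2–10 cm, 1–2 leaf stage. Chemicals in non-phytotoxic solvent + surfactant for both.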

corn (Zea mays) = test: Test A1 postemergence, corn; conditions: Postemergence
In short: (§2)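 Test compounds were formulated in a non-phytotoxic solvent mixture containing a surfactant. For preemergence, seeds sown in a loam soil–sand blend received a directed soil spray. For postemergence, potted plants in the same soil, 2 to 10 cm tall at the one- to two-leaf stage, were sprayed.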

[1] = system: Oat, Wild (wild oat, Avena fatua); test: Test A1 preemergence, Oat, Wild
In short: as §2

[2] = system: ragweed (common ragweed, Ambrosia artemisiifolia); test: Test A1 preemergence, ragweed
In short: as §2

[3] = system: goosegrass (Eleusine indica); test: Test A1 preemergence, goosegrass
In short: as §2

[4] = system: ragweed (common ragweed, Ambrosia artemisiifolia); test: Test A1 postemergence, ragweed; conditions: Postemergence
In short: (§3)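 Seeds were first planted into a blend of loam soil and sand and given a preemergence directed soil spray. In parallel, pots of the same soil were sown for postemergence application once plants reached 2 to 10 cm and the one- to two-leaf stage. Both used surfactant-containing non-phytotoxic solvent formulations.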

kochia (Bassia scoparia) = test: Test A1 postemergence, kochia; conditions: Postemergence
In short: as §1

[5] = system: goosegrass (Eleusine indica); test: Test A1 postemergence, goosegrass; conditions: Postemergence
In short: as §1

[6] = system: Pigweed, Palmer (palmer amaranth, palmer pigweed, Amaranthus palmeri); test: Test A1 postemergence, Pigweed, Palmer; conditions: Postemergence
In short: as §3

[7] = system: wheat (Triticum aestivum); test: Test A1 preemergence, wheat
In short: as §2

[8] = 31 g ai/ha, 0 to 100 scale (0 no effect, 100 complete control), 10 days
[9] = 31 g ai/ha, 0 to 100 scale (0 no effect, 100 complete control)
[10] = 125 g ai/ha, 0 to 100 scale, 0 no effect, 100 complete control

Row | SMILES | Plant response rating, Soybean (soybean (Glycine max); [8]) | Plant response rating, Soybean (soybean (Glycine max); 125 g ai/ha, 0 to 100 scale) | Plant response rating, Corn (corn (Zea mays); [8]) | Plant response rating, Corn (corn (Zea mays); 125 g ai/ha, 0 to 100 scale) | Plant response rating, Oat, Wild [1, 9] | Plant response rating, Oat, Wild [1, 10] | Plant response rating, Ragweed [2, 9] | Plant response rating, Ragweed [2, 10] | Plant response rating, Goosegrass [3, 9] | Plant response rating, Goosegrass [3, 10] | Plant response rating, Ragweed [4, 8] | Plant response rating, Ragweed ([4]; 125 g ai/ha, 0 to 100 scale) | Plant response rating, Kochia (kochia (Bassia scoparia); [8]) | Plant response rating, Kochia (kochia (Bassia scoparia); 125 g ai/ha, 0 to 100 scale) | Plant response rating, Goosegrass [5, 8] | Plant response rating, Goosegrass ([5]; 125 g ai/ha, 0 to 100 scale) | Plant response rating, Pigweed, Palmer [6, 8] | Plant response rating, Pigweed, Palmer ([6]; 125 g ai/ha, 0 to 100 scale) | Plant response rating, Wheat [7, 9] | Plant response rating, Wheat [7, 10]
1 | Cc1cc(C)c(N(COC(=O)C(C)(C)C)S(=O)(=O)C(F)(F)F)cc1C(=O)N1CCOCC1 [Compound 362] | 50 | 70 | 0 | 40 | 0 | 30 | 0 | 50 | 90 | 100 | 70 | 80 | 50 | 80 | 40 | 90 | 10 | 30 | 20 | 70
2 | CCOC(=O)N(c1cc(C(=O)N2CCOCC2)c(C)cc1C)S(=O)(=O)C(F)(F)F [Compound 363] | 60 | 60 | 30 | 60 | 30 | 70 | 20 | 80 | 100 | 100 | 60 | 70 | 50 | 70 | 30 | 90 | 0 | 10 | 40 | 90
3 | Cc1cc(C)c(N(COC(=O)C(C)(C)C)S(=O)(=O)C(F)(F)F)cc1C(=O)N1CCC(c2ccccc2)CC1 [Compound 364] | 0 | 10 | 0 | 0 | 0 | 0 | 0 | 0 | 0 | 0 | 0 | 0 | 0 | 30 | 0 | 0 | 0 | 0 | 0 | 0
4 | CCOC(=O)N(c1cc(C(=O)N2CCC(c3ccccc3)CC2)c(C)cc1C)S(=O)(=O)C(F)(F)F [Compound 365] | 0 | 60 | 0 | 0 | 0 | 0 | 0 | 20 | 10 | 90 | 0 | 30 | 10 | 40 | 0 | 0 | 0 | 0 | 0 | 0
